Experimental data reported in ChEMBL document CHEMBL1151567, “Synthesis and anti HIV-1 activity of new thiadiazepindioxides” (Bioorg Med Chem Lett, 1995).
pIC50: −log10 of the molar value.

How the values were obtained:
[1] = tested on: C8166; test: Antiviral activity was evaluated by inhibition of HIV-1 replication in CD4+ lymphoblastoid cell line infected with HIV/IIIB strain; assay type: functional, cell-based; details: Homo sapiens
[2] = tested on: C8166; test: Cytotoxic activity was evaluated in CD4+ lymphoblastoid cell line; assay type: functional; details: Homo sapiens
[3] = tested on: C8166; test: Ratio of CC50 to that of IC50 was determined; assay type: functional

CCN1C=CC=C2C1=Nc1cc(Cl)c(C)cc1S(=O)(=O)N2C
pIC50 [1]: 6.55
CC50 [2]: 12 µM
Selectivity index [3]: 42

CCN1c2ncccc2N(C)S(=O)(=O)c2cccnc21
pIC50 [1]: < 3.52
CC50 [2]: 300 µM
Selectivity index [3]: <1

Cc1ccnc2c1NC(=O)c1cccnc1N2C1CC1 [NEVIRAPINE]
pIC50 [1]: 7.40
CC50 [2]: 321 µM
Selectivity index [3]: 8025

CN1c2cccnc2Nc2ccccc2S1(=O)=O
pIC50 [1]: < 3.52

CCN1C=CC=C2C1=Nc1ccccc1S(=O)(=O)N2C
pIC50 [1]: 5.43
CC50 [2]: 80 µM
Selectivity index [3]: 22

CC(C)=CCN1Cc2cc(Cl)cc3[nH]c(=S)n(c23)C[C@@H]1C
pIC50 [1]: 8.82
CC50 [2]: 34 µM
Selectivity index [3]: 22600

CCN1c2ccccc2S(=O)(=O)N(C)c2cccnc21
pIC50 [1]: < 3.52

O=c1[nH]cnc2c1ncn2[C@H]1CC[C@@H](CO)O1 [DIDANOSINE]
pIC50 [1]: 6.00
CC50 [2]: 9000 µM
Selectivity index [3]: 9000

CCN1c2cc(Cl)c(C)cc2S(=O)(=O)N(C)c2cccnc21
pIC50 [1]: 4.32
CC50 [2]: > 60 µM
Selectivity index [3]: >1

Cc1cc2c(cc1C)N(C)S(=O)(=O)c1cccnc1N2
pIC50 [1]: 5.40
CC50 [2]: > 125 µM
Selectivity index [3]: >31

Cc1cc2c(cc1C)N(C)S(=O)(=O)C1=CC=CN(C(C)C)C1=N2
pIC50 [1]: 6.22
CC50 [2]: > 30 µM
Selectivity index [3]: >50

Cc1cn([C@H]2C[C@H](N=[N+]=[N-])[C@@H](CO)O2)c(=O)[nH]c1=O [ZIDOVUDINE]
pIC50 [1]: 8.40
CC50 [2]: 1400 µM
Selectivity index [3]: 350000

Cc1cc2c(cc1C)N(C)S(=O)(=O)c1cccnc1N2C(C)C
pIC50 [1]: 7.49
CC50 [2]: > 60 µM
Selectivity index [3]: >1875

CN1c2cccnc2Nc2ncccc2S1(=O)=O
pIC50 [1]: 5.15
CC50 [2]: > 125 µM
Selectivity index [3]: >17

CCN1C=CC=C2C1=Nc1cc(C)c(C)cc1N(C)S2(=O)=O
pIC50 [1]: 6.48
CC50 [2]: > 30 µM
Selectivity index [3]: >90

Cc1cc2c(cc1Cl)Nc1ncccc1N(C)S2(=O)=O
pIC50 [1]: < 3.52

CCN1c2cc(C)c(C)cc2N(C)S(=O)(=O)c2cccnc21
pIC50 [1]: 7.40
CC50 [2]: 150 µM
Selectivity index [3]: 3750
